We go through one compound from ChEMBL document CHEMBL2177061, “Factors influencing the specificity of inhibitor binding to the human and malaria parasite dihydroorotate dehydrogenases” (J Med Chem, 2012).

Each structure is given as a SMILES string. Changes are numbered by the printed parent chain.

Experiment [1] deals with T1, Dihydroorotate dehydrogenase (quinone), mitochondrial (Plasmodium falciparum (isolate 3D7)), Q08210 [C276F].
T1 sequence (whole entry): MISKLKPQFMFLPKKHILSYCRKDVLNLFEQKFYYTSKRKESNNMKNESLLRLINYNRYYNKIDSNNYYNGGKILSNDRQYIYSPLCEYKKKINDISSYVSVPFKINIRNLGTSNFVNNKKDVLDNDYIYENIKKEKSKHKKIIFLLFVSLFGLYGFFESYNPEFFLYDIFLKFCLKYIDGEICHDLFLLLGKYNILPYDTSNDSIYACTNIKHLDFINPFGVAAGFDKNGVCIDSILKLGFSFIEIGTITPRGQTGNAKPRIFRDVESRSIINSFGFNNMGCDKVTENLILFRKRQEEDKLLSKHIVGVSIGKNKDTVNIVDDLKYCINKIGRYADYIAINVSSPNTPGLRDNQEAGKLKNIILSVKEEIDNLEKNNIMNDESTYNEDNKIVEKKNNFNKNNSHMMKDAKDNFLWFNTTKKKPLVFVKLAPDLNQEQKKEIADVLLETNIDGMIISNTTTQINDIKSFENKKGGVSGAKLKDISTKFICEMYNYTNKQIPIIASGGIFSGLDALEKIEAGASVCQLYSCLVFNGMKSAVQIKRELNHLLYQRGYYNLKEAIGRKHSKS
Description: Inhibition of Plasmodium falciparum […] dehydrogenase C276F mutant expressed in Escherichia coli BL21(DE3) using […] as substrate at 100 uM by DCIP-based colorimetric analysis.

Experiment [2] deals with T2, Dihydroorotate dehydrogenase (quinone), mitochondrial (Plasmodium falciparum (isolate 3D7)), Q08210 [C276A].
T2 sequence (whole entry): T1 sequence (whole entry) with F276A
The experiment is described as follows: Inhibition of Plasmodium falciparum […] dehydrogenase C276A mutant expressed in Escherichia coli BL21(DE3) using […] as substrate at 100 uM by DCIP-based colorimetric analysis.

The species entered for experiment [3] is Homo sapiens. Description: Ratio of IC50 for human dihydrofolate dehydrogenase Y147F mutant to IC50 for human wild type dihydrofolate dehydrogenase.
The species entered for experiment [4] is Homo sapiens. Description: Ratio of IC50 for human dihydrofolate dehydrogenase Y147C mutant to IC50 for human wild type dihydrofolate dehydrogenase.

As to `CCc1cc(O)n2nc(SCc3cc(Cl)ccc3Cl)nc2n1`, the inhibition in experiment [1] and in experiment [2] was less than 50% each time. Further, the Ratio IC50 in experiment [3] worked out at 1.9; in experiment [4], 9.
